Here are results for one compound from patent US11999737B2, “Kinase inhibitors and related methods of use” (Duke University, priority 2014, dated 2024).

Entries after “also recorded” stand apart in the source; their conditions may differ.

Test [1] has as its system human cerebral arterioles. The test is described as follows: Pressure myography of isolated human cerebral arterioles, myogenic tone. The settings on record: HS-38 10 μM, ex vivo. An excerpt:
A human cerebral artery (CA) was harvested during a tumour removal. Cerebral tissue was obtained from a person with metastatic adenocarcinoma from lung. Surface vessels of the anterior cerebral artery off the midline over the left anterior frontal lobe were dissected for analysis. […] Pressure-induced changes in arteriolar diameter (A) as well as diameter-pressure relationships (B) and arterial constriction (C) are shown. Data are from n=1 vessel. The passive diameter at 120 mmHg was ˜290 μm. Vessels of similar diameter were isolated, proteins were extracted with SDS-PAGE buffer and immunoblotted (D) for ZIPK and α-actin as a loading control.
A human cerebral artery (CA) was harvested during a tumor removal. Cerebral tissue was obtained from a person with metastatic adenocarcinoma from lung. Surface vessels of the anterior cerebral artery off the midline over the left anterior frontal lobe were dissected for analysis. […]
Pressure-induced changes in arteriole diameter (A) as well as diameter-pressure relationships (B) and arterial constriction (C) are shown. […] Bands were quantified with a LAS4000 gel analyzer.
Tissues were obtained from patients undergoing resections for treatment for epilepsy or tumors. Surface vessels of ˜200 μm diameter were analyzed by pressure myography and western immunoblotting.

A further test concerns LC20 phosphorylation. Also on record: species or system rat.
The target in another test is ROK2 (Rattus norvegicus, UniProt Q62868). Briefly: 33P-ATP filter-binding kinase assay.
The next test deals with Src (Homo sapiens, UniProt P12931). Briefly: 33P-ATP filter-binding kinase assay (kinome profile). Particulars: 10 μM HS38. Type of test: biochemical.
Another test concerns intact mouse aorta. Briefly: Phenylephrine-induced contractile force of intact mouse aorta (myograph). As to the method: A, Typical myograph force trace showing the effect of HS38 on intact mouse aorta contractility. The maximum contractile force of PE-induced contraction was reduced by approximately 30% when HS38 (10 μM) was added five minutes prior to PE addition and by approximately 40% when added ten minutes after PE addition. B, Serum-starved aortic SM cells were treated with SIP (0.25 μM) and HS-38 (±50 μM) for 30 min.
Tissue Preparation and Force Measurements. All protocols and procedures for tissue harvest were carried out according to protocols approved by the Animal Care and Use Committees at the University of Virginia and Duke University, Helical strips of mouse aorta or strips of rabbit ileum were dissected, (˜400 μm wide, 2 mm long) and mounted between two tungsten hooks on a bubble plate for force measurements (Horiuti (1988) J. Physiol.-London 398, 131-148). […] Intact strips of mouse abdominal aorta were challenged with phenylephrine following pretreatment with HS38 or diluent, DMSO or HS38 and DMSO were added after maximal phenylephrine-induced force was achieved and force output measured. […] For Ca^2+ activating solutions, EGTA (10 mM) and a calculated amount of Ca-methanesulfonate was added to give the desired free Ca^2+ concentration ((Horiuti (1988) J. Physiol.-London 398, 131-148).

The target of another test is T1, IRAK4 (Homo sapiens, UniProt Q9NWZ3).
T1 sequence (Q9NWZ3 1-460): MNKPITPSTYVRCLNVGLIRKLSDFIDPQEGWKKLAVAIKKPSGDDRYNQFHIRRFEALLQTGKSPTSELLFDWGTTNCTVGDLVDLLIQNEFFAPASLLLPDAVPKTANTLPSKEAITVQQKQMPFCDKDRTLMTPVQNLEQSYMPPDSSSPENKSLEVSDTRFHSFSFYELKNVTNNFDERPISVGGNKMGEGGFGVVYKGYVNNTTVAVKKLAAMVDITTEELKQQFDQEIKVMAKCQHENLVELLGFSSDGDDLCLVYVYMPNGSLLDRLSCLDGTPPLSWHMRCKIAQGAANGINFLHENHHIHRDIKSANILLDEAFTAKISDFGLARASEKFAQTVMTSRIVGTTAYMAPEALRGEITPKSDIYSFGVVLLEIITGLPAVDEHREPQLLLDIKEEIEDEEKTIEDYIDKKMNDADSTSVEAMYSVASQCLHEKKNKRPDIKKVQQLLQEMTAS
Briefly: 33P-ATP filter-binding kinase assay.

A further test concerns rabbit ileum. Briefly: Carbachol-induced Ca2+-sensitized force in α-toxin permeabilized rabbit ileum. The settings on record: HS38 50 μM, at 20 min, pCa 6.5. As to the method:
A. Typical force trace and graphical representation showing the effect of HS38 (50 μM) on carbachol-induced, Ca^2+ sensitized force in α-toxin permeabilized rabbit ileum. HS38 induced an approximate 30% decrease in the plateaued force at 20 min. (mean±S.E., n=7). B, Western blot analysis of RLC20 and MYPT1 Thr696 phosphorylation following treatment with HS38 (50 μM). […] C. Typical force trace showing the effect, of HS38 on Ca^2+-independent force production in rabbit ileum smooth muscle. […] E. Both the lag time to the onset of force (p <0.05, n=3) and the rate of force development (t1/2) (p <0.02, n=3) were increased following the addition of MC-LR in the presence of HS38 (mean±S.E., n=3).
Tissue Preparation and Force Measurements. […] Intact strips of mouse abdominal aorta were challenged with phenylephrine following pretreatment with HS38 or diluent, DMSO or HS38 and DMSO were added after maximal phenylephrine-induced force was achieved and force output measured. […] For Ca^2+ activating solutions, EGTA (10 mM) and a calculated amount of Ca-methanesulfonate was added to give the desired free Ca^2+ concentration ((Horiuti (1988) J. Physiol.-London 398, 131-148). […]

The mark [2] stands for this setting: read-out: % Activity (10 μM HS38).

Chain of ROK2 (Q62868 2-543): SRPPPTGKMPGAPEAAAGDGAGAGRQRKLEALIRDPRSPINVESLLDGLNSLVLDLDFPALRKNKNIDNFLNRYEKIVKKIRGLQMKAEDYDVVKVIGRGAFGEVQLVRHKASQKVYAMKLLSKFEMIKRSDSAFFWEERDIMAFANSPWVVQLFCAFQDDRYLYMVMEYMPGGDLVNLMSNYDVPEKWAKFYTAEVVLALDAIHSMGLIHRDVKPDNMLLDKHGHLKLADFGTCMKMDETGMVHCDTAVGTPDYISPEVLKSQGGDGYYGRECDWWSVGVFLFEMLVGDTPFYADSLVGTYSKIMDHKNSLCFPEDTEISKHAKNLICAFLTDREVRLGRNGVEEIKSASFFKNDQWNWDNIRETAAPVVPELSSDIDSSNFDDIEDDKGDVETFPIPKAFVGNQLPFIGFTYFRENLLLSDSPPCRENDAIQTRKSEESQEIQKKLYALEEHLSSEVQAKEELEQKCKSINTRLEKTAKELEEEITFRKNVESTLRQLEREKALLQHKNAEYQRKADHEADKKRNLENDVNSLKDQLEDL
Chain of Src (P12931 whole entry): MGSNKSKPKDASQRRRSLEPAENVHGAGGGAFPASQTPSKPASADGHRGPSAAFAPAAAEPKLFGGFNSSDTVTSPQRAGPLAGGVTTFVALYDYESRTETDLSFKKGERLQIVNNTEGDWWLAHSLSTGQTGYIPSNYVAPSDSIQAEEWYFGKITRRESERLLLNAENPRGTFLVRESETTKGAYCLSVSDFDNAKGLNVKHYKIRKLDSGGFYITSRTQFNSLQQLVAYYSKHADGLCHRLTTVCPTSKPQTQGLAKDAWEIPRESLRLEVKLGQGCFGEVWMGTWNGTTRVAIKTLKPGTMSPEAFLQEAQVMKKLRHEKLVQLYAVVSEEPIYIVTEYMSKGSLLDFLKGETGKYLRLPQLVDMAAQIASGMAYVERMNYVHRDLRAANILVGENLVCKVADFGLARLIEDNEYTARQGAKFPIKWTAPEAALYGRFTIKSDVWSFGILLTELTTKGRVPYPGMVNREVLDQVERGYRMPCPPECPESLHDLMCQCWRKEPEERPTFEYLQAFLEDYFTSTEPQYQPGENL

Regarding `CC(Sc1nc2c(cnn2-c2cccc(Cl)c2)c(=O)[nH]1)C(N)=O` (centres unmarked) [HS38], the myogenic tone development entry in test [1] is “appeared to attenuate; also recorded: suppressed”. The “LC20 mono- and diphosphorylation” value with LC20 phosphorylation is given as “time-dependent attenuations”. For the same compound, the “activity against ROK2” value at ROK2 was “completely inactive”. For the same compound, the activity at 10 µM was found to be 91% at ROK2 (setting [2]) and 20% on IRAK4 (setting [2]). Moreover, at Src, the inhibition (as a rule, the change of the read-out against control, counted positive when it falls) at 10 µM came to 0%. The “reduction of maximum contractile force of PE-induced contraction” value is reported as “approximately 30%” in the test on intact mouse aorta (HS38 10 μM added five minutes prior to PE addition) and “approximately 40%” in the test on intact mouse aorta (HS38 10 μM added ten minutes after PE addition). Further, the “fold less potent than against DAPK1 and PIM3” value on IRAK4 is on record as approximately 10 fold. Further, the IC50 (as a rule, the point on the concentration scale where inhibition reaches its midpoint) on IRAK4 (mean ± S.D., n = 2) amounted to 1.4 ± 0.4 µM. Moreover, the “decrease in plateaued carbachol-induced Ca2+-sensitized force” value in the test on rabbit ileum is approximately 30%.
